In PMC6273152, “Design, Synthesis, and Biological Evaluation of Novel PARP-1 Inhibitors Based on a 1H-Thieno[3,4-d] Imidazole-4-Carboxamide Scaffold” (Molecules, 2016):
Like-named read-outs stand apart in the source and are kept apart here.

Tests used:
PARP-1 enzyme = biological target: T1, PARP-1 enzyme (Homo sapiens, UniProt P09874); test: PARP-1 enzymatic inhibition assay (Trevigen 96-well kit, fluorescence); format: biochemical; conditions: logit method, six concentrations, read-out: IC50 (PARP-1 enzyme inhibitory activity)
T1 construct: purchased Trevigen 4690-096-K
T1 sequence (P09874 whole entry): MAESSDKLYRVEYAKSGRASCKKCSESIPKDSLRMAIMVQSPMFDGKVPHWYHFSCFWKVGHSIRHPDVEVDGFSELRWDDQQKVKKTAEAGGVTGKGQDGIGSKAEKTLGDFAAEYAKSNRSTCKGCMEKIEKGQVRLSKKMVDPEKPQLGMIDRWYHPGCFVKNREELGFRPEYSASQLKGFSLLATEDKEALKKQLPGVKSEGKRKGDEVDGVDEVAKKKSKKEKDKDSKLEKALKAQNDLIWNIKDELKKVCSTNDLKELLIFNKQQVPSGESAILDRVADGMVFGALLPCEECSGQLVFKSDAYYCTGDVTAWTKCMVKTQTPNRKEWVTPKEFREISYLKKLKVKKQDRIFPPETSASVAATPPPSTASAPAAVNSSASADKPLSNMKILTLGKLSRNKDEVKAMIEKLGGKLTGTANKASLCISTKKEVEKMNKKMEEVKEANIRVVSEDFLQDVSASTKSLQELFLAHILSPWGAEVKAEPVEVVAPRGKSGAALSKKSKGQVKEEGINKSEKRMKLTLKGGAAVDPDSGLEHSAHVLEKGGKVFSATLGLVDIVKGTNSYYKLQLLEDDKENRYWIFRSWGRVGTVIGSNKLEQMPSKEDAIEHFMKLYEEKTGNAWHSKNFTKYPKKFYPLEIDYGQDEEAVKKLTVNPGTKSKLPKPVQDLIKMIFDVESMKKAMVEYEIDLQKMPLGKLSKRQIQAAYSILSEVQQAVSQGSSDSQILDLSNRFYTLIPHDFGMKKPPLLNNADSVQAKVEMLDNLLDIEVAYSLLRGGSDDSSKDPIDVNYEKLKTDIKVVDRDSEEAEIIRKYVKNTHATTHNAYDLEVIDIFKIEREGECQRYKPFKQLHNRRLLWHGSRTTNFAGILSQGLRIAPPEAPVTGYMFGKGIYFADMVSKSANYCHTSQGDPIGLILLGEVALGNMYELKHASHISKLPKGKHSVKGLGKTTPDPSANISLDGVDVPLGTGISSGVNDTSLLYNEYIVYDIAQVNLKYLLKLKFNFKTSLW
Procedure: All target compounds were evaluated in vitro for their PARP-1 enzyme inhibitory activity.
The procedure was according to the instructions provided by the manufacturer. […] 25 μL of 1 × Buffer was added to each well and 25 μL of appropriate 2 × NAD^+ standards were added to 1B to 1G and 2B to 2G well of 96-well plate for standard curve. 25 μL of 2 μM NAD was added to 1H and 2H for PARP control. 25 μL of 2 μM NAD was added to wells for test compounds, then serially diluted compounds were added, and 1 μL of DMSO was added to the standard well. 25 μL of PARP Mix minus enzyme was added to 1A to 1G and 25 μL of PARP Mix plus enzyme was added to PARP control and compounds well. […] Then 50 μL stop solution was added to each well, and mixed with pipette. […] Then draw the standard curve and calculate the inhibition rate of each test compound.

SMILES	IC50 (PARP-1 enzyme; Table 1 series (12, 13a–j))	melting point	IC50 (PARP-1 enzyme; Table 2 series (16a–n))
NC(=O)c1scc2[nH]c(-c3ccc(C(=O)N4CCNCC4)cc3)nc12 [Compound 12, 2-(4-(Piperazine-1-carbonyl)phenyl)-1H-thieno[3,4-d]imidazole-4-carboxamide]	0.723 µM	–	–
NC(=O)c1scc2[nH]c(-c3ccc(C(=O)N4CCN(C(=O)c5cccs5)CC4)cc3)nc12 [Compound 13a, 2-(4-(4-(Thiophene-2-carbonyl)piperazine-1-carbonyl)phenyl)-1H-thieno[3,4-d]imidazole-4-carboxamide]	2.57 µM	–	–
NC(=O)c1scc2[nH]c(-c3ccc(C(=O)N4CCN(C(=O)c5ccccc5)CC4)cc3)nc12 [Compound 13b, 2-(4-(4-Benzoylpiperazine-1-carbonyl)phenyl)-1H-thieno[3,4-d]imidazole-4-carboxamide]	3.76 µM	270 to 272 °C	–
NC(=O)c1scc2[nH]c(-c3ccc(C(=O)N4CCN(C(=O)c5ccc(Br)cc5)CC4)cc3)nc12 [Compound 13c, 2-(4-(4-(4-Bromobenzoyl)piperazine-1-carbonyl)phenyl)-1H-thieno[3,4-d]imidazole-4-carboxamide]	1.87 µM	294 to 296 °C	–
NC(=O)c1scc2[nH]c(-c3ccc(C(=O)N4CCN(C(=O)c5ccc(Cl)cc5)CC4)cc3)nc12 [Compound 13d, 2-(4-(4-(4-Chlorobenzoyl)piperazine-1-carbonyl)phenyl)-1H-thieno[3,4-d]imidazole-4-carboxamide]	–	247 to 249 °C	–
Cc1ccc(C(=O)N2CCN(C(=O)c3ccc(-c4nc5c(C(N)=O)scc5[nH]4)cc3)CC2)cc1 [Compound 13e, 2-(4-(4-(4-Methylbenzoyl)piperazine-1-carbonyl)phenyl)-1H-thieno[3,4-d]imidazole-4-carboxamide]	–	308 to 310 °C	–
NC(=O)c1scc2[nH]c(-c3ccc(C(=O)N4CCN(Cc5ccccc5)CC4)cc3)nc12 [Compound 13f, 2-(4-(4-Benzylpiperazine-1-carbonyl)phenyl)-1H-thieno[3,4-d]imidazole-4-carboxamide]	3.86 µM	–	–
NC(=O)c1scc2[nH]c(-c3ccc(C(=O)N4CCN(Cc5ccc(Br)cc5)CC4)cc3)nc12 [Compound 13g, 2-(4-(4-(4-Bromobenzyl)piperazine-1-carbonyl)phenyl)-1H-thieno[3,4-d]imidazole-4-carboxamide]	–	285 to 288 °C	–
N#Cc1ccc(CN2CCN(C(=O)c3ccc(-c4nc5c(C(N)=O)scc5[nH]4)cc3)CC2)cc1 [Compound 13h, 2-(4-(4-(4-Cyanobenzyl)piperazine-1-carbonyl)phenyl)-1H-thieno[3,4-d]imidazole-4-carboxamide]	3.72 µM	284 to 286 °C	–
Cc1ccc(CN2CCN(C(=O)c3ccc(-c4nc5c(C(N)=O)scc5[nH]4)cc3)CC2)cc1 [Compound 13i, 2-(4-(4-(4-Methylbenzyl)piperazine-1-carbonyl)phenyl)-1H-thieno[3,4-d]imidazole-4-carboxamide]	–	272 to 273 °C	–
NC(=O)c1scc2[nH]c(-c3ccc(C(=O)N4CCN(C(=O)C5CC5)CC4)cc3)nc12 [Compound 13j, 2-(4-(4-(Cyclopropanecarbonyl)piperazine-1-carbonyl)phenyl)-1H-thieno[3,4-d]imidazole-4-carboxamide]	1.53 µM	272 to 273 °C	–
NC(=O)c1scc2[nH]c(-c3ccccc3)nc12 [Compound 16a, 2-Phenyl-1H-thieno[3,4-d]imidazole-4-carboxamide]	–	256 to 257 °C	0.827 µM
NC(=O)c1scc2[nH]c(-c3ccc(F)cc3)nc12 [Compound 16b, 2-(4-Fluorophenyl)-1H-thieno[3,4-d]imidazole-4-carboxamide]	–	244 to 246 °C	0.738 µM
